Patent publication EP0421419A2, “Tocotrienols in the treatment of hypercholesterolemia, hyperlipidemia and thromboembolic disorders” (Bristol-Myers Squibb Company, priority 1989, dated 1991)

Key:
Lipid Metabolism [1] = assay: Lipid metabolism in normocholesterolemic chickens fed compound in diet; format: in vivo; settings: 20 ppm in corn control diet, 4 weeks; for HDL/LDL: control 1.413; for LDL-Cholesterol: control 76.0(±5.3); for HDL-Cholesterol: control 107.4(±7.0); for Serum Triglycerides: control 115.2(±13); for Serum Cholesterol: control 197.0(±5.2)
Method: Natural gamma-tocotrienol and delta-tocotrienol were evaluated for their hypocholesterolemic action in normocholesterolemic chickens and genetically hypercholesterolemic swine. Newborn male chicks (10 for each group) were raised on a standard corn-soybean-based control diet for two weeks and then were switched to either control or experimental diets for four weeks. Drug treatment consisted of the addition of gamma-tocotrienol or delta-tocotrienol to the corn-soybean-based diet at a concentration of 20 ppm. At the end of the feeding period, all the birds were fasted (about 36 hours) and refed (about 48 hours) to induce cholesterolgenic emzymes prior to sacrifice. The specific activity of HMG-CoA reductase, total serum cholesterol levels, HDL/LDL cholesterol pools, and serum triglyceride levels were examined (Table 5).
Similarly, synthetic gamma-tocotrienol was administered to male chicks at 50 ppm using the same protocol except HMG-CoA reductase levels were not determined.

[2] = test system: Cholesterol Synthesis in HepG2 Cells; assay: HepG2 cell culture model, 14C-acetate incorporation assay; format: cell-based, human; settings: Homo sapiens, HepG2; 10 µM, about 4 hours; read-out: % Inhibition 14C-Ac
Method: HepG2 cells obtained from the American Type Culture Collection were routinely passaged in RPMI-1640 plus 10% fetal bovine serum (FBS) and were subcultured into 35 mm diameter wells for experiments. […] The LDS medium supplement was prepared according to Cham et al., J. Lipid Res., 17: 176-181, (1976). After about 16 hours in LDS containing media, test compounds were added in dimetthylsulfoxide vehicle (0.5% v/v final conc.) for the period of time indicated in the data (generally 4 hours). Cholesterol synthesis was then directly determined by the incorporation of 2-14C-acetate (1.8-3.0 mCi/mmol) into digitonin-precipitable sterols essentially as described for the rat hepatocyte methol above. Greater than 97% of the radiolabelled sterol isolated by this procedure was cholesterol as judged by HPLC. Percent inhibition was calculated from the average of duplicates or triplicates vs. controls receiving vehicle.
(§1) The human hepatoma HepG2 cell culture model was employed to compare the intrinsic activities of the tocotrienols. HepG2 cells were incubated with the indicated compounds for about 4 hours at 10 µM. Cholestrol synthesis was assayed by 14C-acetate incorporation and HMG-CoA reductase suppression was assayed in the isolated microsomal fraction. Cholesterol synthesis inhibition was assayed by 14C-acetate incorporation after preincubation of HepG2 cells with the compounds for about 2 hours or about 4 hours (Example IV). […] As the data in Figure 1 indicate, gamma-tocotrienol has an even greater relative potency compared to alpha-tocotrienol in the HepG2 cell model than in rat hepatocytes. The IC50s from these studies are given in Table 3, in which it can be seen that the intrinsic potency of gamma-tocotrienol is over 30-fold greater than that of alpha-tocotrienol.

Lipid Metabolism [3] = assay: Lipid metabolism in genetically hypercholesterolemic swine fed compound in diet; format: in vivo; settings: 4 weeks; for Serum Cholesterol: 75 ppm in corn-soybean meal control diet, control 406.7(±12.8); for HDL-Cholesterol [% of Control] / LDL-Cholesterol [% of Control] / Serum Cholesterol [% of Control] / Serum Triglycerides [% of Control] / HDL/LDL / HDL-Cholesterol / Serum Triglycerides / LDL-Cholesterol: 75 ppm in diet; for HDL/LDL: control 0.078; for HDL-Cholesterol: control 28.8(±1.1); for Serum Triglycerides: control 67.9(±2.8); for LDL-Cholesterol: control 367.1(±15.7)
Excerpt: Genetically hypercholesterolemic swine (3 per group) were fed for four weeks on either a standard corn-soybean-based control diet or an experimental diet. The experimental diet consisted of the standard mix containing either gamma-tocotrienol or delta-tocotrienol at 75 ppm. The same protocol used for the chicken study was used for the swine group, except HMG-CoA reductase levels were not determined in this case. […] The HDL/LDL atherogenic index as before improved dramatically with drug treatment (Table 7).

HMG-CoA reductase = assay: HepG2 cell culture model, HMG-CoA reductase suppression assay; format: cell-based, human; settings: 10 µM, about 4 hours, HepG2 cells
Method: HMG-CoA reductase suppression in HepG2 cells was conducted by growing cells in RPMT-1640 plus 10% FBS on 100 mm plates, and when cells reached approximately 75% confluency, inducing with LDS (as described above) for about 16 hours prior to assays. Compounds were added using dimethylsulfoxide vehicle (0.5% v/v, final) and after about 4 hours of incubation at 37°, cells were harvested by scraping. Cell pellets were rinsed and lysed by sonication in 1.7 ml cold 50 mM imidazole-HCL, pH 7.2, 50 mM NaCl, 10 mM EDTA, 10 mM EGTA, 5 mM DTT, and 40µM leupeptin). Lysates were centriguged at 150 x g and the supernatant was centrifuged at 100,000 x g in a Beckman airfuge to isolate the post-nuclear total membrane fraction. The membranes were resuspended in 50 mM imidazole-HCl, pH 7.2, 250 mM NaCl, 5 mM DTT, and 20µM leupeptin and used for the assay of HMG-CoA reductase activity by the radiochemical procedure as described previously by Parker et al., J. Biol. Chem., 264: 4877-4887, (1989). Values were normalized for protein content by the Lowry method as cited previously (ibid). HMG-CoA reductase percent suppression was calculated as the decrease in specific activity of HMG-CoA reductase for treated cells vs. controls receiving vehicle. Averages of duplicate cell determinations assayed in duplicate were taken.
as §1
The mechanism of cholesterol synthesis inhibition by tocotrienols involves down regulation of the limiting enzyme of sterol synthesis, HMG-CoA reductase. […] The suppression of HMG-CoA reductase protein expression by gamma-tocotrienol and delta-tocotrienol in HepG2 cells and in rat liver has been confirmed by immunoassy using the Western blot technique (data not shown).

## CC(C)=CCC/C(C)=C/CC/C(C)=C/CC[C@]1(C)CCc2cc(O)cc(C)c2O1 [d-δ-tocotrienol]
Lipid Metabolism [1]
  HDL-Cholesterol [% of Control]: 91.9%
  LDL-Cholesterol [% of Control]: 53.7%
  Serum Cholesterol [% of Control]: 71.5%
  Serum Triglycerides [% of Control]: 77.0%
  HDL/LDL: 2.419
  LDL-Cholesterol: 40.8(±6.6) mg/dl
  HDL-Cholesterol: 98.7(±8.4) mg/dl
  Serum Triglycerides: 88.7(±7.3) mg/dl
  Serum Cholesterol: 140.9(±3.1) mg/dl
[2]
  inhibition at 10 µM: 79%
Lipid Metabolism [3]
  Serum Cholesterol: 214.9(±18.6 mg/dl
  HDL-Cholesterol [% of Control]: 105.3%
  LDL-Cholesterol [% of Control]: 44.8%
  Serum Cholesterol [% of Control]: 47.7%
  Serum Triglycerides [% of Control]: 70.3%
  HDL/LDL: 0.189
  HDL-Cholesterol: 34.4(±1.9) mg/dl
  Serum Triglycerides: 44.4(±1.3) mg/dl
  LDL-Cholesterol: 182.2(±8.2) mg/dl
HMG-CoA reductase
  % Suppression HMG-CoA Reductase: 65%

## CC(C)=CCC/C(C)=C/CC/C(C)=C/CC[C@]1(C)CCc2cc(O)c(C)c(C)c2O1 [d-γ-tocotrienol]
Lipid Metabolism [1]
  HDL-Cholesterol [% of Control]: 95.3%
  LDL-Cholesterol [% of Control]: 56.7%
  Serum Cholesterol [% of Control]: 76.4%
  Serum Triglycerides [% of Control]: 82.8%
  HDL/LDL: 1.669
  LDL-Cholesterol: 43.1(±8.3) mg/dl
  HDL-Cholesterol: 102.3(±4.5) mg/dl
  Serum Triglycerides: 95.4(±5.9) mg/dl
  Serum Cholesterol: 150.5(±4.2) mg/dl
[2]
  inhibition at 10 µM: 78%
Lipid Metabolism [3]
  Serum Cholesterol: 212.8(±9.0) mg/dl
  HDL-Cholesterol [% of Control]: 104.5%
  LDL-Cholesterol [% of Control]: 46.0%
  Serum Cholesterol [% of Control]: 51.3%
  Serum Triglycerides [% of Control]: 76.4%
  HDL/LDL: 0.172
  HDL-Cholesterol: 29.8(±2.9) mg/dl
  Serum Triglycerides: 50.9(±3.1) mg/dl
  LDL-Cholesterol: 172.8(±7.1) mg/dl
HMG-CoA reductase
  % Suppression HMG-CoA Reductase: 64%
